± gives the expanded uncertainty stated by the source.
Test: molar enthalpy of vaporization or sublimation
Settings: 298.15 K; Crystal; Static calorimetry

| Structure (SMILES) | molar enthalpy |
| --- | --- |
| CC(=O)c1cccc(C#N)c1 [3-acetylbenzonitrile] | 22.6 ± 0.359 kcal/mol |
| N#CCC(=O)c1ccccc1 [3-oxo-3-phenylpropanenitrile] | 23.5 ± 0.502 kcal/mol |

Source: the NIST ThermoML archive (doi:10.1016/j.jct.2015.08.008)
